Test results published in PMC5951806, “Rapid labelling and covalent inhibition of intracellular native proteins using ligand-directed N-acyl-N-alkyl sulfonamide” (Nature Communications, 2018).

Assays:
Test in all cases: TMT LC-MSMS of 11-labelled proteins
Format in all cases: cell-based
[1] = biological target: T1, Isoform 3 of Very long-chain specific acyl-CoA dehydrogenase, mitochondrial (ACADVL) (Homo sapiens, UniProt P49748)
T1 sequence (P49748 64-678 isoform P49748-3): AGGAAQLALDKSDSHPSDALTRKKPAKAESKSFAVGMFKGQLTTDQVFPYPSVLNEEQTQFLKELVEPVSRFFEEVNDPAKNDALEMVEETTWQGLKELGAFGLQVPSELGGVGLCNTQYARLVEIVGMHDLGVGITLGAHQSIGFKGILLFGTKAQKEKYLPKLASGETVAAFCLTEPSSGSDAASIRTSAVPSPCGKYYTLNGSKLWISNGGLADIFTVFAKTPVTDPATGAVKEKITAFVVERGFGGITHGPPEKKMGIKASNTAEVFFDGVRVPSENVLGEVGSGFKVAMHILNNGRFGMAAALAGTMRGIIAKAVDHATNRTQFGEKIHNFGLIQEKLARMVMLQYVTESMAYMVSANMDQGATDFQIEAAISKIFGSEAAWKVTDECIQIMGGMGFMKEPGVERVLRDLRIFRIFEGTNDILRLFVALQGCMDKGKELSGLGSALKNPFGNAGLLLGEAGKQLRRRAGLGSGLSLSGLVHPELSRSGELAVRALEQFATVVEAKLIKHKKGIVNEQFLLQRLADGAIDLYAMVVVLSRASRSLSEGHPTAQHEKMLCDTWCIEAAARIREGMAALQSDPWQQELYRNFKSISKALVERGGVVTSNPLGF

[2] = biological target: Isoform 3 of L-lactate dehydrogenase A chain (LDHA) (Homo sapiens, UniProt P00338)
[3] = biological target: elongation factor Tu, mitochondrial (TUFM) (Homo sapiens, UniProt P49411)
[4] = sheet Exp1, SKBR3 cells, 11 0.5 µM 3 h vs DMSO
[5] = sheet Exp1, SKBR3 cells, 11 0.5 µM 3 h vs with PU-H71 10 µM
[6] = sheet Merged, SKBR3 cells, 11 0.5 µM 3 h vs DMSO
[7] = sheet Merged, SKBR3 cells, 11 0.5 µM 3 h vs with PU-H71 10 µM

## CC(=O)Oc1ccc2c(c1)Oc1cc(OC(C)=O)ccc1C21OC(=O)c2cc(C(=O)NCCOCCOCCNC(=O)CCCC(=O)N(CC#N)S(=O)(=O)c3ccc(C(=O)NCCCn4c(Sc5cc6c(cc5I)OCO6)nc5c(N)ncnc54)cc3)ccc21 [compound 11]
[1]; Exp3, ACADVL
  Abundance Ratio: (11) / (11 with PU-H71): 0.845
  Abundance Ratio: (11) / (DMSO): 5.056
  Abundances (Grouped): 11: 1747
  Abundances (Grouped): 11 with PU-H71: 2067.1
[1]; [4]
  Abundance Ratio: (11) / (DMSO): 5.466
[1]; [5]
  Abundance Ratio: (11) / (11 with PU-H71): 0.816
[1]; sheet Exp2, ACADVL
  Abundance Ratio: (11) / (11 with PU-H71): 0.826
  Abundance Ratio: (11) / (DMSO): 4.735
  Abundances (Grouped): 11: 1334.4
  Abundances (Grouped): 11 with PU-H71: 1615.2
[1]; [6]
  Abundance Ratio: (11) / (DMSO): 4.735
[1]; [7]
  Abundance Ratio: (11) / (11 with PU-H71): 0.826
[2]; Exp3, LDHA
  Abundance Ratio: (11) / (11 with PU-H71): 0.709
  Abundance Ratio: (11) / (DMSO): 4.426
  Abundances (Grouped): 11: 517.9
  Abundances (Grouped): 11 with PU-H71: 730.3
[2]; [4]
  Abundance Ratio: (11) / (DMSO): 4.186
[2]; [5]
  Abundance Ratio: (11) / (11 with PU-H71): 0.705
[2]; sheet Exp2, LDHA
  Abundance Ratio: (11) / (11 with PU-H71): 0.702
  Abundance Ratio: (11) / (DMSO): 3.79
  Abundances (Grouped): 11: 554.9
  Abundances (Grouped): 11 with PU-H71: 790.3
[2]; [6]
  Abundance Ratio: (11) / (DMSO): 4.186
[2]; [7]
  Abundance Ratio: (11) / (11 with PU-H71): 0.705
[3]; sheet Exp2, TUFM
  Abundance Ratio: (11) / (11 with PU-H71): 1.006
  Abundance Ratio: (11) / (DMSO): 2.039
  Abundances (Grouped): 11: 67.3
[3]; sheet Exp2, TUFM, with PU-H71
  Abundances (Grouped): 11 with PU-H71: 66.9
[3]; [6]
  Abundance Ratio: (11) / (DMSO): 2.024
[3]; [7]
  Abundance Ratio: (11) / (11 with PU-H71): 0.818
